Measurements: publication PMC5786495 (Cell, 2017)

Test system: NKI2 TCR-transduced peripheral blood lymphocytes
Assay: IFNγ production by NKI2-transduced lymphocytes with peptide-loaded JY cells
Format: cell-based, human
Conditions: NKI2 transduced T cells

Question: How did the “potency of stimulation relative to CDK4 neoantigen ALDPHSGHFV” value turn out when ALDSRSEHFM was run?
Answer: as potently as the CDK4 neoantigen
